Measured values taken from publication PMC11233931, “Remodeling tumor‐associated macrophage for anti‐cancer effects by rational design of irreversible inhibition of mitogen‐activated protein kinase‐activated protein kinase 2” (MedComm, 2024).

Tests used:
Experiment in all cases: Eurofins kinase selectivity profile against 380 other human recombinant kinases (Table S2)
Type in all cases: biochemical
[1] = target: T1, 380 human recombinant protein kinases (Homo sapiens, UniProt P06213); conditions: IR(h), read-out: Inhibition rate
T1 construct: purchased Eurofins (Celle Lévescault)
Procedure, shortened: (§1)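 Commercial selectivity screen of the test compound against a panel of 380 human recombinant protein kinases, run by an outside contractor at several compound concentrations to check whether its potency was specific for MK2.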

[2] = target: T2, 380 human recombinant protein kinases (Homo sapiens, UniProt Q5TCX8); conditions: MLK4(h), read-out: Inhibition rate
T2 construct: purchased Eurofins (Celle Lévescault)
Procedure, shortened: as §1

[3] = target: T3, 380 human recombinant protein kinases (Homo sapiens, UniProt Q09013); conditions: DMPK(h), read-out: Inhibition rate
T3 construct: purchased Eurofins (Celle Lévescault)
T3 sequence (Q09013 1-629): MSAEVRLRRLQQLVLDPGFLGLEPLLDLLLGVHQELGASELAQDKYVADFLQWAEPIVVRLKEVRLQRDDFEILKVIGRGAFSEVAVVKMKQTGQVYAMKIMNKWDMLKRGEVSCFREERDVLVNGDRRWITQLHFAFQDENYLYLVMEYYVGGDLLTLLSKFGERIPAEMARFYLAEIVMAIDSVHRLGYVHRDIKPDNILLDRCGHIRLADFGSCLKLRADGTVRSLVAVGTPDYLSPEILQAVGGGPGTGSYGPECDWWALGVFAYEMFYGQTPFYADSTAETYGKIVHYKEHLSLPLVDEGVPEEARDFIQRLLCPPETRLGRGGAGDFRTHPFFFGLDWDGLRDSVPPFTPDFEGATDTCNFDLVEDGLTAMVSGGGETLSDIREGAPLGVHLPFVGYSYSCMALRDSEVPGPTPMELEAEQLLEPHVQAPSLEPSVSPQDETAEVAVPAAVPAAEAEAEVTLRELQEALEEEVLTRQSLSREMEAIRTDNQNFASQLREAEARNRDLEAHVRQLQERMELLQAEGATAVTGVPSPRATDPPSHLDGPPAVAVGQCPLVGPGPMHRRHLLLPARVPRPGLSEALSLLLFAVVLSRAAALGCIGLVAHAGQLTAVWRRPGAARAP
Procedure, shortened: as §1

[4] = target: T4, 380 human recombinant protein kinases (Homo sapiens, UniProt Q9P0L2); conditions: MARK1(h), read-out: Inhibition rate
T4 construct: purchased Eurofins (Celle Lévescault)
Procedure, shortened: as §1

[5] = target: T5, 380 human recombinant protein kinases (Homo sapiens, UniProt Q9NSY1); conditions: BIKe(h), read-out: Inhibition rate
T5 construct: purchased Eurofins (Celle Lévescault)
Procedure, shortened: as §1

[6] = target: T6, 380 human recombinant protein kinases (Homo sapiens, UniProt Q13555); conditions: CaMKIIγ(h), read-out: Inhibition rate
T6 construct: purchased Eurofins (Celle Lévescault)
Procedure, shortened: as §1

[7] = target: T7, 380 human recombinant protein kinases (Homo sapiens, UniProt P53779); conditions: JNK3(h), read-out: Inhibition rate
T7 construct: purchased Eurofins (Celle Lévescault)
Procedure, shortened: as §1

[8] = target: T8, 380 human recombinant protein kinases (Homo sapiens, UniProt Q9C098); conditions: DCAMKL3(h), read-out: Inhibition rate
T8 construct: purchased Eurofins (Celle Lévescault)
Procedure, shortened: as §1

[9] = target: T9, 380 human recombinant protein kinases (Homo sapiens, UniProt Q9NYL2); conditions: ZAK(h), read-out: Inhibition rate (%)
T9 construct: purchased Eurofins (Celle Lévescault)
Procedure, shortened: as §1

[10] = target: T10, 380 human recombinant protein kinases (Homo sapiens, UniProt O94921); conditions: CDK14/cyclinY(h), read-out: Inhibition rate
T10 construct: purchased Eurofins (Celle Lévescault)
Procedure, shortened: as §1

[11] = target: T11, 380 human recombinant protein kinases (Homo sapiens, UniProt Q86UE8); conditions: TLK2(h), read-out: Inhibition rate (%)
T11 construct: purchased Eurofins (Celle Lévescault)
Procedure, shortened: as §1

[12] = target: T12, 380 human recombinant protein kinases (Homo sapiens, UniProt P25098); conditions: GRK2(h), read-out: Inhibition rate
T12 construct: purchased Eurofins (Celle Lévescault)
T12 sequence (P25098 1-689): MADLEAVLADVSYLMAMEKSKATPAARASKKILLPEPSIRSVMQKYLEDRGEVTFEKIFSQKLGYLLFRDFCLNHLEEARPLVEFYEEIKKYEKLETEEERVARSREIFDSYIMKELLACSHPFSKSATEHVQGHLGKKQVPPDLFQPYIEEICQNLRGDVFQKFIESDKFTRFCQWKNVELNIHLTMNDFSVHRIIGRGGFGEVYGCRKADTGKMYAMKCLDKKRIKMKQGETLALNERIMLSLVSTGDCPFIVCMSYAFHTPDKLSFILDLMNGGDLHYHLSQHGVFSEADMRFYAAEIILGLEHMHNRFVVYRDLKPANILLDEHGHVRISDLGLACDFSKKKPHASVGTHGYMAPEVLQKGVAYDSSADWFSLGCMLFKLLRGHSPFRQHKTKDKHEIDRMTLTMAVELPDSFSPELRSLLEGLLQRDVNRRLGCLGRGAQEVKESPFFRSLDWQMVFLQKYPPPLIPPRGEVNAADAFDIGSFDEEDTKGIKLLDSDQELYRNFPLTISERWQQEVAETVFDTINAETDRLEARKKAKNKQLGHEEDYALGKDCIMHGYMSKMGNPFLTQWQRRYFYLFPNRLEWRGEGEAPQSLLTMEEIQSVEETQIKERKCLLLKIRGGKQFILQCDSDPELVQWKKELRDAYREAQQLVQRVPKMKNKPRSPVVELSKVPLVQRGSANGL
Procedure, shortened: as §1

T4 sequence (Q9P0L2 whole entry): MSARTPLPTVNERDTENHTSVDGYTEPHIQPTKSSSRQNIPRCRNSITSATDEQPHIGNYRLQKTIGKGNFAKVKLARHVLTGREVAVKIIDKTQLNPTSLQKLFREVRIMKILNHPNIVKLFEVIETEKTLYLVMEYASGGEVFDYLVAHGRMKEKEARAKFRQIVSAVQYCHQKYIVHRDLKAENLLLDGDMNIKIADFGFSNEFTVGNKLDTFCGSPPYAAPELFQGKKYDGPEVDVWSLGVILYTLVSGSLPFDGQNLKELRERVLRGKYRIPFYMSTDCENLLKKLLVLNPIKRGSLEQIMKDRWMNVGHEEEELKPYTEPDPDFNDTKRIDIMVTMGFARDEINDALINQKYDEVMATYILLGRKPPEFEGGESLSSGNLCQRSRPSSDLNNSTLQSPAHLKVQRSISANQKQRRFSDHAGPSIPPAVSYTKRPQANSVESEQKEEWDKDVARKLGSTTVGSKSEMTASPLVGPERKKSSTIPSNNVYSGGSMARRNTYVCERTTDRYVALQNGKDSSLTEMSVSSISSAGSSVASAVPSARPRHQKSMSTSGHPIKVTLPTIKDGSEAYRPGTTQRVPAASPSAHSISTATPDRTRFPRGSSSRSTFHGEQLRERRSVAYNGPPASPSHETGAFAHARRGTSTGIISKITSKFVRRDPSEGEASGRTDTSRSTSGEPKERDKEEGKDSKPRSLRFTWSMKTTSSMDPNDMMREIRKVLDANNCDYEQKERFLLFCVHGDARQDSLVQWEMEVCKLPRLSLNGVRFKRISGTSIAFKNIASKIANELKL
T7 sequence (P53779 whole entry): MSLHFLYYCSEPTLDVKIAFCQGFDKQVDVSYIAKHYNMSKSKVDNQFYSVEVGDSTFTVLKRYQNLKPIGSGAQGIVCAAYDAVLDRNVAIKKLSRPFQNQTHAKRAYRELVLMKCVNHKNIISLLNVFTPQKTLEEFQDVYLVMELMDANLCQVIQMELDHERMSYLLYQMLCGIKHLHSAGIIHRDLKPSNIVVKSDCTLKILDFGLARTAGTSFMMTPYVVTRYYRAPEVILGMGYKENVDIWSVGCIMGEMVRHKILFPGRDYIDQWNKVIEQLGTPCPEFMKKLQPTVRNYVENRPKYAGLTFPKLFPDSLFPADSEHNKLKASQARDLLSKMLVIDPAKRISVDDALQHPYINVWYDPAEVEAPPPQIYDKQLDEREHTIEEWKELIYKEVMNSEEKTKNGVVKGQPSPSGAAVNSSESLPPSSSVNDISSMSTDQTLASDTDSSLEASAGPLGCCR
T11 sequence (Q86UE8 whole entry): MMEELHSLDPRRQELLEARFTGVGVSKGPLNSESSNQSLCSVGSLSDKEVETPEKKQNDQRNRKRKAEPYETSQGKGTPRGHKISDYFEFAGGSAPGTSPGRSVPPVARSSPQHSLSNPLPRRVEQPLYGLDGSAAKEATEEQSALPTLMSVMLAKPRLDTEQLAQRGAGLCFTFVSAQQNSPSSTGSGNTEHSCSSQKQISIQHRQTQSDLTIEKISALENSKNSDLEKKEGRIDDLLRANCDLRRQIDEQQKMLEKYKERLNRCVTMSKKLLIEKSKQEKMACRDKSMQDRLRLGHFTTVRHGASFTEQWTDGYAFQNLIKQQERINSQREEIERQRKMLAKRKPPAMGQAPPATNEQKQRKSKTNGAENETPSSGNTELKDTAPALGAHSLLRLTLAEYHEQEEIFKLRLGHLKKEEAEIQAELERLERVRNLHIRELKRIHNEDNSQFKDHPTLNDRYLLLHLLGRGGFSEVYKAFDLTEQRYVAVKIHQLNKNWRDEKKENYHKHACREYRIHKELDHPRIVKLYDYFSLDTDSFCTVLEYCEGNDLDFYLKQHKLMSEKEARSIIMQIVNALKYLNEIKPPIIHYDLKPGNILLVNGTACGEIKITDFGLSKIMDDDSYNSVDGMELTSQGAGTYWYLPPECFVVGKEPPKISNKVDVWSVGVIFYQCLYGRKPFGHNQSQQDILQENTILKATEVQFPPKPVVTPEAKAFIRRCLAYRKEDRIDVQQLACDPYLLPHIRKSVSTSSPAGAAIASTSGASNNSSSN
T5 sequence (Q9NSY1 whole entry): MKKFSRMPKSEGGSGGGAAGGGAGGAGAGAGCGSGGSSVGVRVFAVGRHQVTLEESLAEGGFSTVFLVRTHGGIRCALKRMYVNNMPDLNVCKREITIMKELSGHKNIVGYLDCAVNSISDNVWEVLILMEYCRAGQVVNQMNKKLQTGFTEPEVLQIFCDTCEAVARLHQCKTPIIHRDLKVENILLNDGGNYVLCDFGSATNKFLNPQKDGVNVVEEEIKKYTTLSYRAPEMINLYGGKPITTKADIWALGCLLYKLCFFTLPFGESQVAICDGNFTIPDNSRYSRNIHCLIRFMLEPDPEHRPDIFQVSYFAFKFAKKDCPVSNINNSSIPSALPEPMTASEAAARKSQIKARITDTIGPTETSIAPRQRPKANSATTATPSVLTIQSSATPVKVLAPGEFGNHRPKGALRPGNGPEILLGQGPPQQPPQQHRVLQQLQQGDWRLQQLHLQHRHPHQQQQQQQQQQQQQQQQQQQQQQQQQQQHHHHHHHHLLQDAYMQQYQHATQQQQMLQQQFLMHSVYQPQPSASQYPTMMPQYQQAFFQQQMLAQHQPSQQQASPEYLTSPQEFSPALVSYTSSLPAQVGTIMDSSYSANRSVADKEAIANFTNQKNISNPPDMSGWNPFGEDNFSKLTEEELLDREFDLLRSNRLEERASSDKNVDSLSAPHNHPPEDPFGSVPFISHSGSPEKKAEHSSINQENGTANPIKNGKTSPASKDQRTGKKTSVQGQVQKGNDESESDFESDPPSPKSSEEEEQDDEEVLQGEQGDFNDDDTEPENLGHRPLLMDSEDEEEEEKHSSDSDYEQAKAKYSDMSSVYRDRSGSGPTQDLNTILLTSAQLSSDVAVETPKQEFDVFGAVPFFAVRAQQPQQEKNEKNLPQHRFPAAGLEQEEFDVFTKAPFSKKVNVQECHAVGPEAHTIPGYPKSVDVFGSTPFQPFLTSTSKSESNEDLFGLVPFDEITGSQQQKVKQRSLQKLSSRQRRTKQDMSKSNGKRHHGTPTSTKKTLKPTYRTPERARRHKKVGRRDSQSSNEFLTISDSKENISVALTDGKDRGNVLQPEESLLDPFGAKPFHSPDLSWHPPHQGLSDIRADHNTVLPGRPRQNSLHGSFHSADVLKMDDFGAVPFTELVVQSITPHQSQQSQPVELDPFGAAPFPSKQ
T10 sequence (O94921 whole entry): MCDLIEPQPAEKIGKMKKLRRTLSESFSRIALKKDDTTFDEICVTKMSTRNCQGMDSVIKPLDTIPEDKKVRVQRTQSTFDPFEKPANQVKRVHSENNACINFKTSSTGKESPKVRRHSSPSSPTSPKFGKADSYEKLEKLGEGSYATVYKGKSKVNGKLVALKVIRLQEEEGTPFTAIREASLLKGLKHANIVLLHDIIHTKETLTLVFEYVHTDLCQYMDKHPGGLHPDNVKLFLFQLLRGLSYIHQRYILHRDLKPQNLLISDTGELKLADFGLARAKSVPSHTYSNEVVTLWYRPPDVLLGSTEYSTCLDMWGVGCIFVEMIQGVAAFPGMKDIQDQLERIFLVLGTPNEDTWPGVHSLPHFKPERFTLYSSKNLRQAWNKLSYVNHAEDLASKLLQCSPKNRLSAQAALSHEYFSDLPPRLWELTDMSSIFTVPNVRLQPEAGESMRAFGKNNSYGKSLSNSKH
T9 sequence (Q9NYL2 whole entry): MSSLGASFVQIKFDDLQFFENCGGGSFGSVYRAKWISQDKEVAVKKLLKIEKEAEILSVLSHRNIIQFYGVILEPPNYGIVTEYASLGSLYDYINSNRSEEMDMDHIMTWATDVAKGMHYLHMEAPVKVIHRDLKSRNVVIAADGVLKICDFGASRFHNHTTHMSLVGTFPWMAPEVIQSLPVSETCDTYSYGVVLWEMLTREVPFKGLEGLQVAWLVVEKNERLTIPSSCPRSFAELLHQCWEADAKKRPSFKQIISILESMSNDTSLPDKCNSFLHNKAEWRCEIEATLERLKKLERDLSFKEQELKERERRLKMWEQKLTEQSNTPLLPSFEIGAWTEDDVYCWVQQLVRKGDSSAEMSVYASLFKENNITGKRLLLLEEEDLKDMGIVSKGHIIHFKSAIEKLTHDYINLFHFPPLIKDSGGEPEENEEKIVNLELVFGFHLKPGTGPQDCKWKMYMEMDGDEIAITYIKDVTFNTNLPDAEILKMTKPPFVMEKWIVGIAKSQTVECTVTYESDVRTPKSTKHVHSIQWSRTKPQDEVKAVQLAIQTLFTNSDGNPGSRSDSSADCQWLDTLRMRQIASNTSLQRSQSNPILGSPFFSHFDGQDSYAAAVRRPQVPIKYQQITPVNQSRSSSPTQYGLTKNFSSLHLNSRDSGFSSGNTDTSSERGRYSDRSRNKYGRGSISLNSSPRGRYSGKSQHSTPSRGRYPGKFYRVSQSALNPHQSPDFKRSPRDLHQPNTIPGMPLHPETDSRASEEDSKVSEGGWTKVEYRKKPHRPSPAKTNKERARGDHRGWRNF
T6 sequence (Q13555 whole entry): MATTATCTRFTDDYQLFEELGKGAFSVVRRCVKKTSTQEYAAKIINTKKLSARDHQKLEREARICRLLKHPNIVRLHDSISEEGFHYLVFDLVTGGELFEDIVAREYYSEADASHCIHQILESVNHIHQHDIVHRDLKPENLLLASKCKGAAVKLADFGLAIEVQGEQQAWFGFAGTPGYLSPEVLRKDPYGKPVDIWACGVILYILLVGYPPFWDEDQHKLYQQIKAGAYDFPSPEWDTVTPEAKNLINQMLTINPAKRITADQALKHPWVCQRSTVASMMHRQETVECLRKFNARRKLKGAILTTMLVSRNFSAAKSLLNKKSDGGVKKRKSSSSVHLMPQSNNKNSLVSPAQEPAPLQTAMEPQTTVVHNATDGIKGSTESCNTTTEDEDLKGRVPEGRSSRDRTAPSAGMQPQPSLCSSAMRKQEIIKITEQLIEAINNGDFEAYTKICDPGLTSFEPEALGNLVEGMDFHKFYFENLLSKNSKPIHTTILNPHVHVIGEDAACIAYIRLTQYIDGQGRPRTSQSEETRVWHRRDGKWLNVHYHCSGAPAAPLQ

## C=CC(=O)Nc1cc(-c2cc(-c3cc4c([nH]3)CCNC4=O)ccn2)ccc1OC(F)(F)F [compound 11]
[1]; 10 nM
  inhibition at 0.01 µM: -9%
[1]; 100 nM
  inhibition at 0.1 µM: -4%
[1]; 1000 nM
  inhibition at 1 µM: -10%
[2]; 10 nM
  inhibition at 0.01 µM: -2%
[2]; 100 nM
  inhibition at 0.1 µM: -2%
[2]; 1000 nM
  inhibition at 1 µM: -3%
[3]; 10 nM
  inhibition at 0.01 µM: -5%
[3]; 100 nM
  inhibition at 0.1 µM: 1%
[3]; 1000 nM
  inhibition at 1 µM: 7%
[4]; 10 nM
  inhibition at 0.01 µM: -1%
[4]; 100 nM
  inhibition at 0.1 µM: -12%
[4]; 1000 nM
  inhibition at 1 µM: -4%
[5]; 10 nM
  inhibition at 0.01 µM: 0%
[5]; 100 nM
  inhibition at 0.1 µM: 18%
[5]; 1000 nM
  inhibition at 1 µM: 48%
[6]; 10 nM
  inhibition at 0.01 µM: -5%
[6]; 100 nM
  inhibition at 0.1 µM: 6%
[6]; 1000 nM
  inhibition at 1 µM: 18%
[7]; 10 nM
  inhibition at 0.01 µM: 4%
[7]; 100 nM
  inhibition at 0.1 µM: 6%
[7]; 1000 nM
  inhibition at 1 µM: 38%
[8]; 10 nM
  inhibition at 0.01 µM: -1%
[8]; 100 nM
  inhibition at 0.1 µM: 6%
[8]; 1000 nM
  inhibition at 1 µM: 26%
[9]; 10 nM
  inhibition at 0.01 µM: -3%
[9]; 100 nM
  inhibition at 0.1 µM: -1%
[9]; 1000 nM
  inhibition at 1 µM: 1%
[10]; 10 nM
  inhibition at 0.01 µM: -2%
[10]; 100 nM
  inhibition at 0.1 µM: 7%
[10]; 1000 nM
  inhibition at 1 µM: 4%
[11]; 10 nM
  inhibition at 0.01 µM: 13%
[11]; 100 nM
  inhibition at 0.1 µM: 1%
[11]; 1000 nM
  inhibition at 1 µM: -2%
[12]; 10 nM
  inhibition at 0.01 µM: -6%
[12]; 100 nM
  inhibition at 0.1 µM: -9%
[12]; 1000 nM
  inhibition at 1 µM: -2%
